Data on 5 compounds can be found in PubChem BioAssay (NCI).

Among the test systems are XF 498 CNS; HOP-18 NSCLC; KM20L2 colon; LXFL 529 NSCLC; DMS 114 small cell lung; DLD-1 colon; M19-MEL melanoma; SNB-78 CNS; DMS 273 small cell lung.
What all share (assay): NCI tumour cell line growth inhibition, 48 h

“And” between values parts separate entries of the source, which are not always exact repeats. Equal entries are not always repeated.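 Protocol summary: plate cells (96-well), add compound at 5 concentrations, incubate 48 h, interpolate endpoints linearly. At the GI50, growth is halved. TGI: total growth inhibition.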 A value given as a limit tells only on which side of the number the result lay.

As for `COc1cc(CNc2ccc(C)cc2)cc(OC)c1OC`, the GI50 was 1.98 µM with XF 498 CNS; 17.8 µM and > 60.8 µM in the assay with HOP-18 NSCLC. Further, the TGI was > 100 µM with XF 498 CNS; > 100 µM in the assay on HOP-18 NSCLC; 0.447 µM and 0.939 µM in the assay on KM20L2 colon; > 100 µM in the assay on LXFL 529 NSCLC; 0.981 µM and 3.08 µM in the assay with DMS 114 small cell lung; > 100 µM in the assay with DLD-1 colon. The TGI with M19-MEL melanoma and with SNB-78 CNS was > 100 µM each time.
`CC1=CC(=O)c2ccc3c4ccccc4n(C)c3c2C1=O`: the TGI is > 100 µM in the assay on XF 498 CNS; > 100 µM in the assay on DMS 273 small cell lung; 42.2 µM in the assay with HOP-18 NSCLC; > 100 µM in the assay with LXFL 529 NSCLC; 97.1 µM with DMS 114 small cell lung; > 100 µM in the assay with DLD-1 colon. Moreover, the TGI in the assay with M19-MEL melanoma was 38.2 µM; in the assay on SNB-78 CNS it was > 100 µM.
As to `CC[n+]1c(/C=C/c2cc(C(=O)OC)n3c2sc2ccccc23)sc2ccccc21`, the TGI was found to be 29.3 µM in the assay on XF 498 CNS; 38.2 µM in the assay on DMS 273 small cell lung; 35.1 µM in the assay on KM20L2 colon; 32.9 µM in the assay with LXFL 529 NSCLC; 52.9 µM with DMS 114 small cell lung; 35.5 µM in the assay on M19-MEL melanoma.
For the compound `C=Cc1c(-c2ccccc2)cnc2[nH]c3ccccc3c12`, the TGI in the assay on XF 498 CNS, in the assay on DMS 273 small cell lung, in the assay on LXFL 529 NSCLC, in the assay with DMS 114 small cell lung, in the assay with DLD-1 colon and with M19-MEL melanoma was > 50 µM each time.
`CC(=O)NC1=C(NCCO)C(=O)c2ccccc2C1=O`: the TGI in the assay on XF 498 CNS was > 50 µM; in the assay with DMS 273 small cell lung it was > 50 µM; with KM20L2 colon, > 50 µM; with LXFL 529 NSCLC it was > 50 µM; in the assay with DLD-1 colon, > 50 µM; in the assay on M19-MEL melanoma it was 18.6 µM. In addition, the TGI in the assay on SNB-78 CNS is > 50 µM.
